pIC50: −log10 of the molar value. Like-named read-outs stand apart in the source and are kept apart here.
Key:
catalase (CAT) = assay: qRT-PCR relative mRNA expression, CAT; assay type: cell-based, human; details: for CAT expression change: G-361; for Relative mRNA expression level CAT (RQ): G-361, 48 h incubation, RQ = 2^-ΔΔCt, mean ± SD, control 1.016
Description: (§1) […] cell line was seeded into 6-well plates in the concentration of 4 × 10^5 cells/well. Thiosemicarbazide derivatives were added when 70–80% of confluence was achieved. After 48 h of incubation, 1 mL of TRIzol™ Reagent (Invitrogen, Carlsbad, CA, USA) was added to lyse the cells. Lysates were centrifuged for 5 min at 12,000× g at 4 °C, and clear supernatants were processed according to the manufacturer’s protocol. Then, reverse transcription was performed using NG dART RT-PCR kit (EURx, Gdańsk, Poland) and a Mastercycler gradient thermocycler (Eppendorf, Hamburg, Germany). Thermal profile of the reaction: 10 min at 25 °C, then 50 min at 50 °C, and 5 min at 85 °C. mRNA levels of the genes DHODH, 18SRNA, and BACT were assessed using TaqMan Fast Advanced Master Mix (ThermoFisher, Waltham, MA, USA). mRNA levels of the following genes: CAT, SOD2,18SRNA TBP were assessed using PowerUp SYBR Green Master Mix (ThermoFisher, Waltham, MA, USA) in a 7500 Fast Real-Time PCR System (ThermoFisher, Waltham, MA, USA). Thermal profile of the reactions performed: 20 s at 95 °C, followed by 40 cycles of 3 s at 95 °C and 30 s at 60 °C. The reaction was carried out in triplicates. Relative expression of the tested genes was determined by qRT-PCR and the ΔΔCt method. The statistical analysis was performed with RQ values (relative quantification, RQ = 2^−∆ΔCt).

[1] = system: dihydroorotate dehydrogenase (DHODH); assay: qRT-PCR relative mRNA expression, DHODH; assay type: cell-based, human; details: G-361, 48 h incubation, RQ = 2^-ΔΔCt, mean ± SD, control 1.000
Description: as §1

[2] = system: superoxide dismutase (SOD2); assay: qRT-PCR relative mRNA expression, SOD2; assay type: cell-based, human; details: G-361, 48 h incubation, RQ = 2^-ΔΔCt, mean ± SD, control 1.001
Description: as §1

[3] = system: BJ normal fibroblast cell line; assay: MTT cytotoxicity, BJ normal fibroblasts; assay type: cell-based, human; details: for toxic to normal fibroblasts (MTT test): BJ, concentration range used; for pIC50: MTT test
Description: Biological studies were performed on human malignant melanoma G-361 (ATCC CRL-1424) cell lines and human fibroblast BJ (ATCC® CRL-2522™) cell lines purchased from the American Type Culture Collection (ATCC, Manassas, VA USA). The G-361 cell lines were maintained in McCoy’s medium (Corning, NY, USA), and the fibroblast BJ cell line was cultured in EMEM (Corning, NY, USA). All media were supplemented with 10% heat-inactivated fetal bovine serum (PAN-Biotech, Aidenbach, Germany), 100 U/mL penicillin, 100 μg/mL streptomycin and 0.25 μg/mL amphotericin B (Sigma-Aldrich, St. Louis, MO, USA). Cultures were maintained at 37 °C in a humidified atmosphere of 95% air and 5% CO2. The experiments were performed using cells from passage 5 to 10.
The cytotoxicity of the new compounds was evaluated against both the G-361 and BJ cell lines. Cells were seeded into 96-well plates at a density of 3 × 10^4 cells/well and 2 × 10^4 cells/well. After 24 h of incubation, when 70–80% confluence was reached, the culture medium was removed and replaced with the fresh one containing the tested compounds in the concentration range of 10, 25, 50, 75, 100, 125 and 250 μM. Cells were cultured at 37 °C in the presence of 5% air with CO2 for another 24 h. The cytotoxicity of the test compounds was evaluated by the MTT colorimetric assay, based on the ability of live cells to convert yellow soluble tetrazolium salts (3-[4,5-dimethylthiazol-2-yl]- 2,5-diphenyltetrazolium bromide, MTT) to purple insoluble formazan by cellular dehydrogenase. After 24 h of incubation with solutions of the test compounds, 4 mg/mL MTT solution (Thermo Scientific, Waltham, MA, USA) was added to the cell cultures and incubation was continued for 4 h at 37 °C. The MTT medium was then removed, and the resulting crystals were dissolved in 200 µL of DMSO. The solution was measured for absorbance at 570 nm using a Power Wave xs spectrophotometric plate reader, BioTek Instruments (Winooski, VT, USA). The experiment was performed three times with three replicates for each concentration. IC50 values were determined using the AAT Bioquest IC50 calculator.

[4] = system: gastric cancer cell line MKN74; set-up: method as in PMID 22741788; details: MKN74 gastric cancer cells ref 9; cited from earlier work
melanoma line G-361 = assay: Two-step cell cycle analysis (DAPI, image cytometry); assay type: cell-based, human; details: G-361, 24 h, IC50 concentration
Description: Cell-cycle assays was performed using NC 3000 system (Chemometec., Lillerød, Denmark) according to manufacturer’s protocol for the two-step cell cycle analysis. The G-361 cells were seeded in 12-well plates at a density of 1 × 10^5 cells/well, and the tested compounds with concentration IC50 were added when 70–80% of confluence was achieved. After 24 h of incubation with tested compounds, the cells were washed with PBS and thoroughly resuspended in 250 μL lysis buffer supplemented with 10 μg/mL DAPI. After 5 min incubation at 37 °C, cells were mixed with 250 μL stabilization buffer and loaded into the 8-chamber slide NC-Slide A8 (Chemometec., Lillerød, Denmark). Cellular fluorescence was quantified using a NucleoCounter® NC-3000™ image cytometer (Chemometec., Lillerød, Denmark). The obtained DNA content histograms were used to demarcate different phases of the cell cycle in tested samples. The experiments were performed three times with three replicates.

[5] = 24 h treatment, BJ normal fibroblasts, concentration range 10-250 µM, read-out: IC50 BJ
[6] = BJ fibroblasts, further analysis, value in parentheses after >250, read-out: IC50 BJ (value in parentheses)

## CSc1ccc(NC(=S)NNC(=O)COc2ccc(Cl)cc2Cl)cc1 [PK2, 1-(2,4-dichlorophenoxy)acetyl-4-(4-metylothiophenyl)thiosemicarbazide]
Catalase (CAT)
  CAT expression change: reduction
  Relative mRNA expression level CAT (RQ): 0.107 ± 0.013
[1]
  Relative mRNA expression level DHODH (RQ): 0.463 ± 0.016
[2]
  Relative mRNA expression level SOD2 (RQ): 1.486 ± 0.056
[3]
  toxic to normal fibroblasts (MTT test): not toxic
[3]; Homo sapiens, Fibroblast, 24 h treatment, BJ normal fibroblasts, concentration range 10-250 µM, read-out: IC50 BJ
  pIC50: < 3.60
[3]; Homo sapiens, Fibroblast, BJ fibroblasts, further analysis, value in parentheses after >250, read-out: IC50 BJ (value in parentheses)
  pIC50: 3.08

## O=C(COc1ccc(Cl)cc1Cl)NNC(=S)Nc1ccccc1I [PK6, 1-(2,4-dichlorophenoxy)acetyl-4-(2-iodophenyl)thiosemicarbazide]
Catalase (CAT)
  CAT expression change: increased
  Relative mRNA expression level CAT (RQ): 2.691 ± 0.127
[1]
  Relative mRNA expression level DHODH (RQ): 0.824 ± 0.030
[2]
  Relative mRNA expression level SOD2 (RQ): 1.249 ± 0.080
[3]
  toxic to normal fibroblasts (MTT test): not toxic
[3]; [5]
  pIC50: < 3.60
[3]; [6]
  pIC50: 3.20

## O=C(COc1ccc(Cl)cc1Cl)NNC(=S)Nc1cccc2ccccc12 [PK9, 1-(2,4-dichlorophenoxy)acetyl-4-(1-naphtyl)thiosemicarbazide]
Catalase (CAT)
  CAT expression change: reduction
  Relative mRNA expression level CAT (RQ): 0.354 ± 0.022
[1]
  Relative mRNA expression level DHODH (RQ): 0.375 ± 0.018
[4]
  effect on cell cycle: inhibited the cell cycle in S and G2 phases
[2]
  Relative mRNA expression level SOD2 (RQ): 1.293 ± 0.100
Melanoma line G-361
  effect on cell cycle: no cell cycle arrest was observed
[3]
  toxic to normal fibroblasts (MTT test): not toxic
[3]; [5]
  pIC50: < 3.60
[3]; [6]
  pIC50: 3.05

Reference: PMC8961551, “Potential Anticancer Agents against Melanoma Cells Based on an As-Synthesized Thiosemicarbazide Derivative” (Biomolecules, 2022)
